Read-outs that look alike come from different tables or passages of the source.
What was measured:
[1] = molecular target: recombinant human Mcl-1 (residues 171-327) / Bim interaction (Homo sapiens (Human), UniProt Q07820); test: biochemical; format: binding; details: TR-FRET, Mcl-1(171-327) / biotin-Bim (51-76); read-out: Mcl-1 HTRF IC50
Protocol: The inhibition of the Mcl-1/Bim interaction was measured using a time-resolved fluorescence resonance energy transfer (TR-FRET) assay. […] The TR-FRET assay was conducted in a 384-well white OptiPlate™ (PerkinElmer, Waltham, Mass.) in a total volume of 40 μL. The reaction mixture contained 0.1 nM Mcl-1(171-327), 0.05 nM biotin-Bim (51-76), 0.05 nM LANCE® Eu-W1024 Anti-6×His (PerkinElmer), 0.072 nM Streptavidin-Xlent (Cisbio, Bedford, Mass.), and serially diluted test compounds in the binding buffer of 20 mM Hepes, pH 7.5, 150 mM NaCl, 0.016 mM Brij®35, and 1 mM dithiothreitol. Test compounds were pre-incubated with Mcl-1(171-327) and biotin-Bim (51-76) for 60 min before addition of the detection mixture (LANCE® Eu-W1024 Anti-6×His and Streptavidin-Xlent). The reaction plates were further incubated overnight and then were read on an Envision® multimode reader (PerkinElmer). Fluorescence signals were measured at 620 nm (40-nm bandwidth) and 665 nm (7.5-nm bandwidth) with a 60 is delay after excitation at 320 nm (75-nm bandwidth). The signal ratio at 665/620 nm corresponded to the Mcl-1/Bim interaction and was used in all data analyses. The IC50 values of test compounds were determined from duplicate data by analyzing competition curves using a four-parameter sigmoidal model in GraphPad Prism (GraphPad Software, San Diego, Calif.) or in Genedata Screener® (Genedata, Basel, Switzerland).

[2] = system: human multiple myeloma cell line, OPM-2; test: Cell viability assay (OPM-2 10 FBS), CellTiter-Glo; format: cell-based
Summary of the method: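 IC50 values come from 4-parameter logistic fits of luminescence signals reflecting cell viability. Treatment lasted 16 h at 37 °C in complete medium with 10% FBS, starting from 3000 cells/well.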

[3] = read-out: OPM-2 10% FBS IC50 IP, OPM-2 cells, 10% FBS, 16 h, CellTiter-Glo
[4] = Homo sapiens, OPM-2, 16 h, read-out: OPM-2 10% FBS IC50 IP, OPM-2 cells, 10% FBS, 16 h, CellTiter-Glo

Sequence of recombinant human Mcl-1 (residues 171-327) / Bim interaction (Q07820 171-327): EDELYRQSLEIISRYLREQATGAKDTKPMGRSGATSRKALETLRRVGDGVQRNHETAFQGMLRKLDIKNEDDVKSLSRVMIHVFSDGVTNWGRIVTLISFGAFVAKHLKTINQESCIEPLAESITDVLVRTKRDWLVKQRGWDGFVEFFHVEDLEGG

Compound | IC50 [1] [nM] | IC50 [2, 3] [nM] | IC50 [2, 4] [nM]
C[C@@H]1[C@@H](C)CCC[C@@](O)(CCN2CC(F)(F)C2)[C@@H]2CC[C@H]2CN2C[C@@]3(CCCc4cc(Cl)ccc43)COc3ccc(cc32)C(=O)NS1(=O)=O [Example 100093, (1S,3′R,6′R,7′R,11′S,12′R)-6-chloro-7′-(2-(3,3-difluoro-1-azetidinyl)ethyl)-7′-hydroxy-11′,12′-dimethyl-3,4-dihydro-2H,15′H-spiro[naphthalene-1,22′-[20]oxa[13]thia[1,14]diazatetracyclo [14.7.2.0~3,6~.0~19,24~]pentacosa[16,18,24]trien]-15′-one 13′,13′-dioxide] | 0.291 | 554 | 
C[C@@H]1[C@@H](C)CCC[C@@](O)(CCN2CC(F)(F)C2)[C@@H]2CC[C@H]2CN2C[C@@]3(CCCc4cc(Cl)ccc43)COc3ccc(cc32)C(=O)NS1(=O)=O [Example 100094, (1S,3′R,6′R,7′R,11′S,12′R)-6-chloro-7′-(2-(3,3-difluoro-1-azetidinyl)ethyl)-7′-hydroxy-11′,12′-dimethyl-3,4-dihydro-2H,15′H-spiro[naphthalene-1,22′-[20]oxa[13]thia[1,14]diazatetracyclo [14.7.2.0~3,6~.0~19,24~]pentacosa[16,18,24]trien]-15′-one 13′,13′-dioxide] | 3.83 | 4380 | 
C[C@@H]1[C@@H](C)CCC[C@@](O)(CCN2CCOCC2)[C@@H]2CC[C@H]2CN2C[C@@]3(CCCc4cc(Cl)ccc43)COc3ccc(cc32)C(=O)NS1(=O)=O [Example 100095, (1S,3′R,6′R,7′R,11′S,12′R)-6-chloro-7′-hydroxy-11′,12′-dimethyl-7′-(2-(4-morpholinyl)ethyl)-3,4-dihydro-2H,15′H-spiro[naphthalene-1,22′-[20]oxa[13]thia[1,14]diazatetracyclo [14.7.2.0~3,6~.0~19,24~]pentacosa[16,18,24]trien]-15′-one 13′,13′-dioxide] | 0.148 | 113 | 
C[C@@H]1[C@@H](C)CCC[C@@](O)(CCN2CCOCC2)[C@@H]2CC[C@H]2CN2C[C@@]3(CCCc4cc(Cl)ccc43)COc3ccc(cc32)C(=O)NS1(=O)=O [Example 100096, (1S,3′R,6′R,7′R,11′S,12′R)-6-chloro-7′-hydroxy-11′,12′-dimethyl-7′-(2-(4-morpholinyl)ethyl)-3,4-dihydro-2H,15′H-spiro[naphthalene-1,22′-[20]oxa[13]thia[1,14]diazatetracyclo [14.7.2.0~3,6~.0~19,24~]pentacosa[16,18,24]trien]-15′-one 13′,13′-dioxide] | 0.624 | 517 | 
C[C@@H]1[C@@H](C)CCC[C@](O)(CC(=O)O)[C@@H]2CC[C@H]2CN2C[C@@]3(CCCc4cc(Cl)ccc43)COc3ccc(cc32)C(=O)NS1(=O)=O [Example 100097, ((1S,3′R,6′R,7′S,11′S,12′R)-6-chloro-7′-hydroxy-11′,12′-dimethyl-13′,13′-dioxido-15′-oxo-3,4-dihydro-2H-spiro[naphthalene-1,22′-[20]oxa[13]thia[1,14]diazatetracyclo [14.7.2.0~3,6~.0~19,24~]pentacosa[16,18,24]trien]-7′-yl)acetic acid] | 0.081 |  | 5230
CNC(=O)C[C@]1(O)CCC[C@H](C)[C@@H](C)S(=O)(=O)NC(=O)c2ccc3c(c2)N(C[C@@H]2CC[C@H]21)C[C@@]1(CCCc2cc(Cl)ccc21)CO3 [Example 100098, 2-((1S,3′R,6′R,7′R,11′S,12′R)-6-chloro-7′-hydroxy-11′,12′-dimethyl-13′,13′-dioxido-15′-oxo-3,4-dihydro-2H-spiro[naphthalene-1,22′-[20]oxa[13]thia[1,14]diazatetracyclo [14.7.2.0~3,6~.0~19,24~]pentacosa[16,18,24]trien]-7′-yl)-N-methylacetamide] | 0.231 |  | 748

From patent US10821115B2, “Compounds that inhibit Mcl-1 protein” (priority 2017, dated 2020)
